According to patent EP0326963B1, “Deodorant as well as deodorizing food, drink and seasoning” (priority 1988, dated 1989):
“And” between values parts separate entries of the source, which are not always exact repeats. Equal values may be shown once.

Tests used:
[1] = system: urogenous smell; assay: Test Example 4: smell of fresh urine of cats, cat food containing potassium phytate; type: in vivo, crossbred mature cats; design: key to Deodorizing Effects 2nd day / Deodorizing Effects 3rd day / Deodorizing Effects 4th day / Deodorizing Effects 5th day / Deodorizing Effects 7th day: 1: No change; 2: Weaken; 3: Almost no recognizable smell; conditions: cat food with 0.1mg/g
Experimental: To a moisture type cat food, potassium phytate was composed in an amount of 0.1mg/g. The cat food was given to crossbred mature cats (2 heads, body weight of about 5kg) in an amount 100g/day over 7 days. After 2, 3, 4, 5 and 7 days from the first administration, fresh urine was taken with use of a catheter to immediately check a degree of its smell by 3 judges. […]

[2] = system: urogenous smell; assay: Test Example 1: smell of fresh urine of cats, potassium phytate solution 8mg/ml; type: in vivo; design: key to Deodorizing Effects 1st day / Deodorizing Effects 3rd day / Deodorizing Effects 5th day / Deodorizing Effects 7th day / Deodorizing Effects 14th day: 1: No change; 2: Weaken; 3: Almost no recognizable smell
Experimental: A solution containing potassium phytate in an amount of 8mg/ml (Example 1) was administered to cats (5 heads, body weight of about 5kg) in an amount of 3ml/head/day over 14 days. After 1, 3, 5, 7 and 14 days from the first administration, fresh urine was taken with use of a catheter to immediately check a degree of its smell by 3 judges. […]

[3] = cats, 8mg/ml solution, 3ml/head/day

O=P(O)(O)O[C@H]1[C@H](OP(=O)(O)O)[C@@H](OP(=O)(O)O)[C@H](OP(=O)(O)O)[C@@H](OP(=O)(O)O)[C@H]1OP(=O)(O)O [potassium phytate, Potassium phytate]
Efficiency 2nd day ([1]; cats (2 heads), 100g/day, 2nd day): 0/2
Efficiency 3rd day ([1]; cats (2 heads), 100g/day, 3rd day): 1/2
Efficiency 4th day ([1]; cats (2 heads), 100g/day, 4th day): 2/2
Efficiency 5th day ([1]; cats (2 heads), 100g/day, 5th day): 2/2
Efficiency 7th day ([1]; cats (2 heads), 100g/day, 7th day): 2/2
deodorizing effect of the compound appears ([1]; cats, 100g/day): by third day
urogenous smell disappeared ([1]; cats, 100g/day): on forth day
Deodorizing Effects 2nd day ([1]; individual cat, 100g/day over 7 days, 2nd day): 2
Deodorizing Effects 3rd day ([1]; individual cat, 100g/day, 3rd day): 3 and 2
Deodorizing Effects 4th day ([1]; individual cat, 100g/day, 4th day): 3
Deodorizing Effects 5th day ([1]; individual cat, 100g/day, 5th day): 3
Deodorizing Effects 7th day ([1]; individual cat, 100g/day, 7th day): 3
Efficiency 1st day ([2]; cats (5 heads), 8mg/ml solution, 3ml/head/day, 1st day): 0/5
Efficiency 3rd day ([2]; cats (5 heads), 8mg/ml solution, 3ml/head/day, 3rd day): 0/5
Efficiency 5th day ([2]; cats (5 heads), 8mg/ml solution, 3ml/head/day, 5th day): 4/5
Efficiency 7th day ([2]; cats (5 heads), 8mg/ml solution, 3ml/head/day, 7th day): 5/5
Efficiency 14th day ([2]; cats (5 heads), 8mg/ml solution, 3ml/head/day, 14th day): 5/5
deodorizing effect of the compound appears [2, 3]: by third day
urogenous smell was disappeared [2, 3]: on fifth day
similar test repeated ([2]; cats, repeated after 10 days from the final administration): results same with said first test
urogenous smell after the final administration ([2]; cats, several days after the final administration): appeared again
Deodorizing Effects 3rd day ([2]; individual cat, 8mg/ml solution, 3ml/head/day over 14 days, 3rd day): 1 and 2 (4×)
Deodorizing Effects 5th day ([2]; individual cat, 8mg/ml solution, 3ml/head/day over 14 days, 5th day): 2 and 3 (4×)
Deodorizing Effects 7th day ([2]; individual cat, 8mg/ml solution, 3ml/head/day over 14 days, 7th day): 3
Deodorizing Effects 14th day ([2]; individual cat, 8mg/ml solution, 3ml/head/day over 14 days, 14th day): 3
Deodorizing Effects 1st day ([2]; individual cat, 8mg/ml solution, 3ml/head/day over 14 days, fresh urine, 3 judges, 1st day): 1
